Values quoted from earlier work, collected in patent publication US20110092601A1, “LYSINE-SPECIFIC DEMETHYLASE INHIBITORS” (THE JOHNS HOPKINS UNIVERSITY, priority 2007, published 2011).

Tested on: P19 embryonal carcinoma cells
Details: P19 embryonal carcinoma cells treated with tranylcypromine

N[C@@H]1C[C@H]1c1ccccc1 [tranylcypromine, (1R,2S)-2-phenylcyclopropan-1-amine]
Effect on transcription of the Egr1 and Oct4 genes: transcriptional de-repression of the Egr1 and Oct4 genes
